# Test results as given in PMC9412104, “Biochemical and Structural Insights on the Poplar Tau Glutathione Transferase GSTU19 and 20 Paralogs Binding Flavonoids” (Frontiers in Molecular Biosciences, 2022).
# Where two headings read alike, the source gives them in different places.
# Columns and labels:
# PtGSTU19 [1] = target: T1, PtGSTU19 (Populus trichocarpa, UniProt B9HKX9); experiment: Competition (inhibition) assay of GSH-conjugation with PITC as substrate; assay type: biochemical
# Description: (§2) The measured velocities were corrected by subtracting the rate of the spontaneous nonenzymatic reaction, and three independent experiments were performed at each substrate concentration. The kinetic parameters (k cat and apparent K m) and the inhibition constants (K i) were, respectively, obtained by fitting the data to the nonlinear regression Michaelis–Menten model (kinetic assays) and to the mixed inhibition model (inhibition assays) in GraphPad Prism 8 software ([Copeland, 2013]).
# PtGSTU20 [2] = target: T2, PtGSTU20 (Populus trichocarpa, UniProt D2X9R3); experiment: as above; assay type: biochemical
# T2 sequence (D2X9R3 entry or part of it): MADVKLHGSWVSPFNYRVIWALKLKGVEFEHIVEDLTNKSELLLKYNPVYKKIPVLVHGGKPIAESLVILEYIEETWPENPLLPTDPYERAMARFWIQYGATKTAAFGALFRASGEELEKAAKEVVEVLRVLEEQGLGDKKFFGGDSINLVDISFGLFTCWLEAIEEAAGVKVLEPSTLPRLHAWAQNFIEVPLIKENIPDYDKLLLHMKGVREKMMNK
# Description: as §2
# PtGSTU19 [3] = target: T1, PtGSTU19; experiment: Thermal shift assay (SYPRO orange); assay type: binding
# Description: (§1) Assays were performed in a mixture (final volume of 25 µL) containing 30 mM Tris-HCl pH 8.0, 100 µM of chemical compounds (diluted in 8% DMSO) originating from a chemical library (Supplementary Tables S2, S3), 20 µM of PtGSTU19 or 20, and 5X SYPRO orange. […] The denaturation temperature, which corresponds to the temperature at which 50% of the total fluorescence is measured, was determined by the nonlinear regression Boltzmann sigmoidal model in GraphPad Prism 8 software for data obtained in the presence of potential ligands. This temperature was compared with a reference assay in which organic compounds were replaced by an equivalent DMSO concentration.
# PtGSTU20 [4] = target: T2, PtGSTU20; experiment: Thermal shift assay (SYPRO orange); assay type: binding
# Description: as §1
# PtGSTU19 [5] = target: T1, PtGSTU19; experiment: Peroxidase activity, NADPH coupled spectrophotometric assay; assay type: biochemical; details: enzyme concentration increased up to 10 µM
# Description: (§3) Peroxidase activity toward hydroperoxides was measured using an NADPH coupled spectrophotometric assay ([Pégeot et al., 2014]).
# as §2
# PtGSTU20 [6] = target: T2, PtGSTU20; experiment: as above; assay type: biochemical; details: enzyme concentration increased up to 10 µM
# Description: as §3, §2
# PtGSTU19Y160A = PtGSTU19Y160A (Populus trichocarpa, UniProt B9HKX9, Y160A); experiment: GSH-conjugation activity toward model substrates, variant; assay type: biochemical; details: PtGSTU19 Y160A, fixed saturating GSH, mean ± S.D.
# Sequence of PtGSTU19Y160A (B9HKX9 2-219 Y160A): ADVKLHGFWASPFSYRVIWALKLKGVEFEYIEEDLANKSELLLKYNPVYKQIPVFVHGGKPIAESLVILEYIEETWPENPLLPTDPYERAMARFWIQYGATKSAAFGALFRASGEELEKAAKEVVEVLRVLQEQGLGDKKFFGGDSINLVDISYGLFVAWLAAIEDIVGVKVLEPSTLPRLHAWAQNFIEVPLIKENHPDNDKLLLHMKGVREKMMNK
# Description: as §3
# (§4) The measured velocities were corrected by subtracting the rate of the spontaneous nonenzymatic reaction, and three independent experiments were performed at each substrate concentration.
# PtGSTU19Y160C = PtGSTU19Y160C (Populus trichocarpa, UniProt B9HKX9, Y160C); experiment: as above; assay type: biochemical; details: PtGSTU19 Y160C, fixed saturating GSH, mean ± S.D.
# Sequence of PtGSTU19Y160C (B9HKX9 2-219 Y160C): as the sequence (B9HKX9 2-219 Y160A) above, with A159C counted along it
# Description: as §3, §4
# PtGSTU19Y160F = PtGSTU19Y160F (Populus trichocarpa, UniProt B9HKX9, Y160F); experiment: as above; assay type: biochemical; details: PtGSTU19 Y160F, GSH-conjugation, fixed saturating GSH, mean ± S.D., n = 3
# Sequence of PtGSTU19Y160F (B9HKX9 2-219 Y160F): as the sequence (B9HKX9 2-219 Y160A) above, with A159F counted along it
# Description: as §3, §4
# PtGSTU20C160Y = PtGSTU20C160Y (Populus trichocarpa, UniProt D2X9R3, C160Y); experiment: as above; assay type: biochemical; details: PtGSTU19 C160Y in Table S4, fixed saturating GSH, mean ± S.D.
# Sequence of PtGSTU20C160Y (D2X9R3 2-219 C160Y): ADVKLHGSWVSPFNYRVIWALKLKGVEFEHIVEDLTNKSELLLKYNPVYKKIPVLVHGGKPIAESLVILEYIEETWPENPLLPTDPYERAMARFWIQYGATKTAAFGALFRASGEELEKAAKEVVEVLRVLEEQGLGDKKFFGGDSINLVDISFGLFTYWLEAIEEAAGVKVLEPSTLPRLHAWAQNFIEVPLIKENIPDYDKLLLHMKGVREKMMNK
# Description: as §3, §4
# PtGSTU19 [7] = target: T1, PtGSTU19; experiment: GSH-conjugation activity toward model substrates; details: for Catalytic efficiency: PtGSTU19
# PtGSTU20 [8] = target: T2, PtGSTU20; experiment: GSH-conjugation activity toward model substrates; details: for k cat: 25°C, fixed 1 mM GSH (0.7 mM with HNE), mean ± S.D., n = 3
# [9] = read-out: ΔTd (denaturation temperature difference), PtGSTU19 20 µM, compound 100 µM, vs DMSO reference, flavonoid set (Table S3, Figure 4)
# [10] = read-out: ΔTd (denaturation temperature difference), PtGSTU19 apo form 20 µM, compound 100 µM, vs DMSO reference, first chemical library screen (Table S2, Figure S9)
# [11] = read-out: ΔTd (denaturation temperature difference), PtGSTU20 20 µM, compound 100 µM, vs DMSO reference, flavonoid set (Table S3, Figure 4)
# [12] = read-out: ΔTd (denaturation temperature difference), PtGSTU20 apo form 20 µM, compound 100 µM, vs DMSO reference, first chemical library screen (Table S2, Figure S9)
# [13] = PtGSTU20 20 µM, compound 100 µM, vs DMSO reference, flavonoid set (Table S3, Figure 4), read-out: ΔTd (denaturation temperature difference)
# [14] = PtGSTU19, 25°C, fixed 1 mM GSH (0.7 mM with HNE), mean ± S.D., n = 3
# [15] = read-out: ΔTd (denaturation temperature difference)
# T1 sequence (B9HKX9 entry or part of it): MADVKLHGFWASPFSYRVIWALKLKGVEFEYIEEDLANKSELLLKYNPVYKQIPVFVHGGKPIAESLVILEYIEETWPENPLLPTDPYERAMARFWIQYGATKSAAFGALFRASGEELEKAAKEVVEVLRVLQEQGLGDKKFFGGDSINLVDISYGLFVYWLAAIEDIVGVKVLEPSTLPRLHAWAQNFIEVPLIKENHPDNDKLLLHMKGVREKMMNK
molecule,measurement,setting,value
O=c1cc(-c2ccccc2)oc2cc(O)c(O)c(O)c12 [Baicalein],Ki,PtGSTU19 [1],35.2 ± 2.8 µM
same,Ki,PtGSTU20 [2],7.1 ± 0.6 µM
same,ΔTm at 100 µM,PtGSTU19 [3]; [9],0.73 ± 0.2 °C
same,ΔTm at 100 µM,PtGSTU19 [3]; [10],> 4 °C
same,ΔTm at 100 µM,PtGSTU20 [4]; [11],3.4 °C
same,ΔTm at 100 µM,PtGSTU20 [4]; [12],> 4 °C
O=C(/C=C/c1ccc(O)c(O)c1)c1ccc(O)cc1O [butein],ΔTm at 100 µM,PtGSTU20 [4]; [13],2.32 °C
"CC(C)(C)OO [t-BOOH, tert-butyl hydroperoxide]",Peroxidase activity (active on the peroxide),PtGSTU19 [5],not
same,Peroxidase activity (active on the peroxide),PtGSTU20 [6],not
O=C(CCc1ccc(O)cc1)c1c(O)cc(O)cc1O [phloretin],ΔTm at 100 µM,PtGSTU20 [4]; [13],3.11 °C
"S=C=NCc1ccccc1 [BITC, benzyl-isothiocyanate]",k cat,PtGSTU19Y160A; n = 3,6.5 ± 0.2 s⁻¹
same,Km,"PtGSTU19Y160A; n = 3, read-out: apparent KM",30.6 ± 4.5 µM
same,k cat,PtGSTU19Y160C; n = 3,6.7 ± 0.1 s⁻¹
same,Km,"PtGSTU19Y160C; n = 3, read-out: apparent KM",54.1 ± 3.3 µM
same,k cat,PtGSTU19Y160F,8.3 ± 0.2 s⁻¹
same,Km,PtGSTU19Y160F; read-out: apparent KM,36.3 ± 3.3 µM
same,k cat,PtGSTU20C160Y; n = 3,4.9 ± 0.1 s⁻¹
same,Km,"PtGSTU20C160Y; n = 3, read-out: apparent KM",71.4 ± 9.6 µM
same,Catalytic efficiency,PtGSTU19 [7],132200 M⁻¹ s⁻¹
same,k cat,PtGSTU19 [7]; [14],7.0 ± 0.1 s⁻¹
same,k cat,PtGSTU20 [8],10.4 ± 0.3 s⁻¹
oxidized glutathione [GSSG],ΔTd (denaturation temperature difference),"PtGSTU19 [3]; PtGSTU19 apo form 20 µM, compound 100 µM, vs DMSO reference, first chemical library screen (Table S2, Figure S9)",little or no change
same,ΔTd (denaturation temperature difference),"PtGSTU20 [4]; PtGSTU20 apo form 20 µM, compound 100 µM, vs DMSO reference, first chemical library screen (Table S2, Figure S9)",little or no change
"CCCC(=O)Oc1ccc([N+](=O)[O-])cc1 [PNP-butyrate, 4-nitrophenyl-butyrate]",Catalytic efficiency,PtGSTU19 [7],100 M⁻¹ s⁻¹
same,k cat,PtGSTU19 [7]; [14],0.040 ± 0.001 s⁻¹
same,k cat/K m,PtGSTU19 [7]; [14],0.100 ± 0.002 10^3 M^-1s^-1
same,Catalytic efficiency,PtGSTU20 [8],100 M⁻¹ s⁻¹
same,k cat,PtGSTU20 [8],0.020 ± 0.001 s⁻¹
O=c1c(O)c(-c2ccc(O)cc2O)oc2cc(O)cc(O)c12 [Morin],Ki,PtGSTU19 [1],72.9 ± 5.3 µM
same,Ki,PtGSTU20 [2],16 ± 0.9 µM
same,ΔTm at 100 µM,PtGSTU19 [3]; [9],0.37 ± 0.16 °C
same,ΔTm at 100 µM,PtGSTU19 [3]; [10],> 4 °C
same,ΔTm at 100 µM,PtGSTU20 [4]; [11],4.36 °C
same,ΔTm at 100 µM,PtGSTU20 [4]; [12],> 4 °C
O=c1c(O)c(-c2ccccc2)oc2cc(O)cc(O)c12 [Galangin],Ki,PtGSTU19 [1]; read-out: K i,157 ± 28.7 µM
same,Ki,PtGSTU20 [2]; read-out: K i,43.8 ± 0.6 µM
same,ΔTm at 100 µM,"PtGSTU19 [3]; PtGSTU19 20 µM, compound 100 µM, vs DMSO reference, flavonoid set (Table S3, Figure 4), read-out: ΔTd (denaturation temperature difference)",1.59 ± 0.29 °C
same,ΔTd (denaturation temperature difference),"PtGSTU20 [4]; PtGSTU20 20 µM, compound 100 µM, vs DMSO reference, flavonoid set (Table S3, Figure 4), 100 µM",5.89 ± 0.64 °C
same,ΔTm at 100 µM,PtGSTU20 [4]; [13],7.42 °C
O=c1cc(-c2ccccc2)oc2cc(O)cc(O)c12 [Chrysin],ΔTm at 100 µM,PtGSTU19 [3]; [15],-0.05 ± 0.07 °C
same,ΔTm at 100 µM,PtGSTU20 [4]; [15],2.07 °C
